The results in this text go back to the NIST ThermoML archive (doi:10.1016/j.fluid.2005.04.003).

Numbers after ± are expanded uncertainties.

For data set [1] the following is noted: Liquid; for mass density: 298.15 K, 101.33 kPa.
Data set [2] is described as follows: refractive index (Na D-line) (dimensionless). The note with it: 298.15 K; 101.33 kPa; Liquid; Standard Abbe refractometry.

What is called mass density is the mass of a sample divided by its volume. In general, refractive index refers to the speed of light in vacuum divided by its phase velocity in the sample. As to `CCOC(C)(C)CC` [1,1-dimethylpropyl ethyl ether], in data set [1], the mass density is 760.57 ± 0.66 kg/m3 and the Normal boiling temperature was 101.42 ± 0.08 °C. Moreover, in data set [2], the refractive index was determined as 1.38857 ± 0.00072.

Regarding `CCO` [ethanol], in data set [1], the mass density was 785.22 ± 0.64 kg/m3 and the Normal boiling temperature was 78.29 ± 0.08 °C. Besides, the refractive index in data set [2] was 1.3592 ± 0.00073.

Regarding `CO` [methanol], in data set [1], the mass density was found to be 786.63 ± 0.63 kg/m3 and the Normal boiling temperature was found to be 64.4 ± 0.08 °C. Also, the refractive index in data set [2] is 1.3264 ± 0.0007.
